The results in this text go back to patent publication US7589123B2, “Chemical compounds” (Phytopharm PLC, priority 2006, dated 2009).

The structures appear in SMILES notation.

One data set has as its target T1, 5-lipoxygenase (Homo sapiens, UniProt P09917).
T1 construct: endogenous in cells; host or cells: human peripheral blood mononuclear leukocytes (PBMLs)
T1 sequence (P09917 1-674): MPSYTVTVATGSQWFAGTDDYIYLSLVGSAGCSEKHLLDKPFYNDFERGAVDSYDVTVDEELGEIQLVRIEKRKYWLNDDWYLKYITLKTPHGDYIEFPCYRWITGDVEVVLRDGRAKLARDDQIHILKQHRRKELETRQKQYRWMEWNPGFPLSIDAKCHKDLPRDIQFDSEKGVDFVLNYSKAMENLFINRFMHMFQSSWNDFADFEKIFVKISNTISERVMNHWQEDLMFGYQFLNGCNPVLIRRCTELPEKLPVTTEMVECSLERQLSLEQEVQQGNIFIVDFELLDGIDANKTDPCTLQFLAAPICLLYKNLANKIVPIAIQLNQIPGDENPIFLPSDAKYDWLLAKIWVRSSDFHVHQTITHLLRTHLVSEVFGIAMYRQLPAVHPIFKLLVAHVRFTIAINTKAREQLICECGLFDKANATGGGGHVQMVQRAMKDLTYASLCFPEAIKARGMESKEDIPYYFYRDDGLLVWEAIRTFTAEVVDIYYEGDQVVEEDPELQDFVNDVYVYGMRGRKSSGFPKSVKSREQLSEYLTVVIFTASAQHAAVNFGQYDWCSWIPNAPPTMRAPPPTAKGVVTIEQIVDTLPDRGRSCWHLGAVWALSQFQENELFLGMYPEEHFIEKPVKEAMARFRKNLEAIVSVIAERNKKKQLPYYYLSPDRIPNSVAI
The experiment in a line: 5-lipoxygenase activity (LTB4) in human peripheral blood mononuclear leukocytes (Assay 6). It counts as cell-based. The conditions noted are these: human PBMLs, A23187 30 μM, read-out: Inhibition of 5-LO (%). The protocol:
Human peripheral blood mononuclear leukocytes (PBMLs) were isolated using a Ficoll-Paque density gradient. Human peripheral blood mononuclear leukocytes (5×10^6 cells) were incubated with A23187 (30 μM), a divalent cation ionophore used to initiate the biosynthesis of […], and with vehicle (0.1% DMSO) or test compound (3 and 30 μM) in Hank's balanced salt solution (HBBS) buffer, pH 7.4 at 37° C. for 15 min. The PBML solution was neutralized with NaOH (1 N) and centrifuged at 1000 g for 10 min and the supernatant collected. The concentration of leukotriene B4 (LTB4) in the supernatant was measured using an enzyme immunoassay kit (Assay Design Inc.). A reduction in the concentration of LTB4 indicated an inhibition of the enzyme 5-lipoxygenase (Table 11).

The next data set has as its target TRPV1 receptor (Rattus norvegicus, UniProt O35433). The experiment in a line: TRPV1 modulation in DRG neurones: CGRP release in absence and presence of capsaicin (Assay 2). It counts as cell-based. On the set-up: The culture used for this experiment contained sensory neurones, Schwann cells and fibroblasts; endogenous in cells; host or cells: primary rat DRG sensory neurone culture (with Schwann cells and fibroblasts). The conditions noted are these: 20 min; for inhibition at 3 µM: 3 μM with capsaicin 1 μM; for inhibition at 3 µM / inhibition at 30 µM: −ve: inhibition, +ve: potentiation of capsaicin response, read-out: Effect of test compounds on capsaicin (1 μM)-induced CGRP release (%); for inhibition at 30 µM: 30 μM with capsaicin 1 μM; for Emax at 3 µM: test compound alone 3 μM; for Emax at 3 µM / Emax at 30 µM: rat DRG sensory neurones, read-out: CGRP release (% of capsaicin (1 μM) response); for Emax at 30 µM: test compound alone 30 μM.

Data set [1] concerns α-smooth muscle actin (α-SMA) mRNA. The experiment in a line: Anti-remodelling activity in human lung fibroblasts (HFL1): TGFβ-induced α-SMA mRNA (Assay 4). To be noted: Homo sapiens, HFL1 cells, TGFβ 10 ng/ml, 24 h, read-out: Inhibition of α-SMA mRNA synthesis (%). The format is cell-based. The protocol:
A human foetal lung fibroblast cell line (HFL1 cells; ATCC accession number CCl-153) was used in this assay. The cells were cultured in medium containing a low level of foetal bovine serum (FBS; 0.1%) for 24 h. After 24 h of culturing the medium was changed to: (a) Control medium (medium containing 10% FBS, 1% phosphate saline and 0.5 mM L-glutamine), (b) Control medium and transforming growth factor beta (TGFβ; 10 ng/ml), (c) Control medium and TGFβ and test compounds (3 and 30 μM). The medium was collected after 24 h and the total mRNA extracted in Tri-reagent. The level of mRNA coding for α-smooth muscle actin (α-SMA) was assessed by real-time reverse transcription-polymerase chain reaction (rtRT-PCR) using primer couples that allow the amplification of α-SMA mRNA. Liver glyceraldehydes 3-phosphate dehydrogenase (GADPH) was used as a reference marker in this experiment. The inhibition of the TGTβ-induced overexpression of α-SMA mRNA by the test compounds was quantified.

The test system of data set [2] is IL-1α-induced PGE2 release. The experiment in a line: IL-1α-induced PGE2 release in human diploid lung fibroblasts (WI-38) (Assay 5). To be noted: Homo sapiens, WI-38 cells, IL-1α 1 nM, overnight. It counts as cell-based. The protocol:
(§1) Human diploid lung fibroblasts (WI-38 cells) were incubated overnight in the presence of IL-1α (1 nM) and test compound (3 and 30 μM) in modified Eagle medium at pH 7.3 containing foetal bovine serum (10%) at 37° C. The supernatant was assayed by radioimmunoassay for released PGE2 and the inhibition of PGE2 by test compound calculated (Table 10). The viability of the cells was then assessed by washing with Roswell Park Memorial Institute medium and adding Alamar Blue reagent before being incubated at 37° C. for 4 h. Living cells take up Alamar Blue and emit fluorescence when excited. Fluorescence intensity was measured using a SpectroFluor Plus plate reader with excitation at 530 nm and emission at 590 nm (Table 10).

In data set [3] the test system is 5-HT-induced contractions in guinea pig ileum. The experiment in a line: Inhibition of 5-HT-induced contractions in guinea pig ileum (Assay 3). To be noted: Cavia porcellus, 5-HT 2.6 μM, read-out: Inhibition of 5-HT-induced contraction (%). The protocol:
(§2) Duncan Hartley derived male guinea pigs (325±25 g) were suppressed by CO2 overexposure, the abdominal cavity was exposed and ileal segments were removed. Small strips of ileum were suspended in organ baths containing Krebs solution (composition in g/l: NaCl 6.89, KCl 0.35, CaCl2 0.277, KH2PO4 0.163, MgSO4.7H2O 0.296, NaHCO3 2.1 glucose 1.8). The solution was kept at 32° C. and gassed with O2 (95%)-CO2 (5%) to maintain pH at 7.4. Mechanical activity was recorded by means of isotonic transducers. A resting tension of 1 g was applied to muscle strips before being equilibrated for 1 h, prior to test compound addition. Each preparation was washed twice at 15 min intervals during the equilibration.
(§3) Histamine (1.7 μM; approximately EC60-70) or 5-hydroxytryptamine (5-HT, 2.6 μM; approximately EC60-70) was applied for 5 min and the amplitude of the contraction recorded. The histamine or 5-HT was then washed out until the ileal tissue returned to baseline. Five min after returning to baseline test compound (3 and 30 μM) was applied and the amplitude of the contraction (if any) was recorded. In the continuous presence of test compound, histamine or 5-HT was re-applied and the inhibition of the response was recorded.

In data set [4] the test system is histamine-induced contractions in guinea pig ileum. Briefly: Inhibition of histamine-induced contractions in guinea pig ileum (Assay 3). The conditions noted are these: Cavia porcellus, histamine 1.7 μM, read-out: Inhibition of histamine-induced contraction (%). The protocol:
as §2, §3

The test system of the next data set is WI-38 cells. Briefly: Viability of WI-38 cells, Alamar Blue (Assay 5). It counts as cell-based, human. The protocol: as §1

Chain of TRPV1 receptor (O35433 whole entry): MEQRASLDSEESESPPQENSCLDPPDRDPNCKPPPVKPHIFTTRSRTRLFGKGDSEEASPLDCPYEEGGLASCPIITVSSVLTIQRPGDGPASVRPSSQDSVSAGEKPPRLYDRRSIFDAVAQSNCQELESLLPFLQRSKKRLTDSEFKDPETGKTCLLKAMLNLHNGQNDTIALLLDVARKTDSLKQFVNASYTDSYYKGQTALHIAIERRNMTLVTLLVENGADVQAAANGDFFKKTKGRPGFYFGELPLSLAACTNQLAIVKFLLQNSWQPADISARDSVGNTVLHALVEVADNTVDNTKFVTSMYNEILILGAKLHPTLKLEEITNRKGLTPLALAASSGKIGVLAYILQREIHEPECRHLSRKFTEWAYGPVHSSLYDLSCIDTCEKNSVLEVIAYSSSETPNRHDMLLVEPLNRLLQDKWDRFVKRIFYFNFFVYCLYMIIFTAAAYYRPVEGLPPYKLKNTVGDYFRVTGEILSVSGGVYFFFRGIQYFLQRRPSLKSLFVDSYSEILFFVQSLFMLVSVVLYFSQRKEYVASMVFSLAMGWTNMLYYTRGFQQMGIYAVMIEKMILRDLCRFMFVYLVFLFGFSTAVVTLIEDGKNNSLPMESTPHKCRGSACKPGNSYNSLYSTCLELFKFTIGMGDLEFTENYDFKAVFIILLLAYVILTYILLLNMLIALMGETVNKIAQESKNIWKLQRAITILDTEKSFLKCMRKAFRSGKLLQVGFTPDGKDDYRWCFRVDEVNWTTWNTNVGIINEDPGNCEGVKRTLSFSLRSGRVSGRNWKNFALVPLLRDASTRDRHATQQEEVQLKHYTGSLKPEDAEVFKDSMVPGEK

Take `COc1cc(CCC(=O)CC(=O)c2ccccc2-c2ccccc2)ccc1O` [Compound 19, 1-(Biphenyl-2-yl)-5-(4-hydroxy-3-methoxyphenyl)-pentane-1,3-dione]: the inhibition at 3 µM on 5-lipoxygenase is 48%; on TRPV1 receptor, -29%; in data set [1], 57%; in data set [2], 73%; in data set [3], 13%; in data set [4] it was 8%. The inhibition at 30 µM at 5-lipoxygenase is 99%; at TRPV1 receptor it was -159%; in data set [1], 97%; in data set [2], 100%; in data set [3], 39%; in data set [4] it was 81%. Further, the Emax at 3 µM on TRPV1 receptor came to 139%. Moreover, on TRPV1 receptor, the Emax at 30 µM amounted to 286%. The “Decrease in cell viability (%)” value in the data set on WI-38 cells (3 μM) is −1%; in the data set with WI-38 cells (30 μM), 57%.
With `COc1cc(CCC(=O)CC(=O)Cc2ccccc2)ccc1O` [Compound 28, 6-(4-Hydroxy-3-methoxyphenyl)-1-phenyl-hexane-2,4-dione], the inhibition at 3 µM on 5-lipoxygenase was 35%; at TRPV1 receptor it was 51%; in data set [1] it was 12%; in data set [2], 87%; in data set [3], 6%; in data set [4] it was 7%. For the same compound, the inhibition at 30 µM on 5-lipoxygenase is 98%; on TRPV1 receptor, -29%; in data set [1], 47%; in data set [2], 99%; in data set [3] it was 85%; in data set [4], 18%. The Emax at 3 µM on TRPV1 receptor worked out at 29%. In addition, on TRPV1 receptor, the Emax at 30 µM is 107%. In addition, the “Decrease in cell viability (%)” value in the data set with WI-38 cells (3 μM) was determined as 1%; in the data set on WI-38 cells (30 μM), 6%.
For `COc1cc(CCC(=O)C(C)C(=O)c2ccc(O)c(OC)c2)ccc1O` (centres unmarked) [Compound 16, 1,5-Bis(4-hydroxy-3-methoxyphenyl)-2-methyl-pentane-1,3-dione], the inhibition at 3 µM at 5-lipoxygenase is 20%; at TRPV1 receptor it was -49%; in data set [1], -8%; in data set [2], 32%; in data set [3], 0%; in data set [4] it was 4%. Also, the inhibition at 30 µM on 5-lipoxygenase is 73%; at TRPV1 receptor, -49%; in data set [1] it was 10%; in data set [2] it was 83%; in data set [3], 28%; in data set [4] it was 22%. The Emax at 3 µM at TRPV1 receptor is 53%. Moreover, the Emax at 30 µM at TRPV1 receptor worked out at 52%. Also, the results for the “Decrease in cell viability (%)” value in the data set with WI-38 cells (3 μM) and with WI-38 cells (30 μM) were 10% and −9%, respectively.
On to `COc1cc(CCC(=O)CC(=O)c2cccc(Cl)c2)ccc1O` [Compound 22, 1-(3-Chlorophenyl)-5-(4-hydroxy-3-methoxyphenyl)pentane-1,3-dione], for which the inhibition at 3 µM on 5-lipoxygenase is 62%; on TRPV1 receptor, 2%; in data set [1], -5%; in data set [2], 93%; in data set [3] it was 18%; in data set [4], 11%. In addition, the inhibition at 30 µM at 5-lipoxygenase is 98%; on TRPV1 receptor, -58%; in data set [1], 25%; in data set [2] it was 100%; in data set [3], 94%; in data set [4] it was 65%. Further, the Emax at 3 µM on TRPV1 receptor was 60%. In addition, at TRPV1 receptor, the Emax at 30 µM came to 163%. In addition, the “Decrease in cell viability (%)” value was found to be 3% with WI-38 cells (3 μM) and 9% with WI-38 cells (30 μM).
As for `COc1cc(CCC(=O)CC(=O)c2ccc(O)c(OC)c2)ccc1O` [Compound 15, 1,5-Bis(4-hydroxy-3-methoxyphenyl)-pentane-1,3-dione], the inhibition at 3 µM on 5-lipoxygenase stood at 16%; on TRPV1 receptor, 18%; in data set [1], 13%; in data set [2], 49%; in data set [3] it was 0%; in data set [4] it was 0%. In addition, the inhibition at 30 µM is 63% at 5-lipoxygenase; 27% on TRPV1 receptor; 29% in data set [1]; 95% in data set [2]; 54% in data set [3]; 13% in data set [4]. The Emax at 3 µM on TRPV1 receptor was found to be 34%. The Emax at 30 µM on TRPV1 receptor is 34%. The “Decrease in cell viability (%)” value in the data set with WI-38 cells (3 μM) is −2%; in the data set with WI-38 cells (30 μM), −1%.
